# Patent US20220202882A1, “EFFECT OF COMBINATION OF BIFIDOBACTERIUM AND BERBERINE ON PRE-DIABETES AND TYPE 2 DIABETES” (The Fourth Military Medical University, priority 2018, published 2022)
# Counter-ions that a name gives are not always drawn.
# Experiments:
# [1] = test system: pre-diabetic and type 2 diabetes mellitus patients; test: Clinical trial: venous plasma glucose at 2 hours post OGTT (2-h PPG); type: in vivo, human; conditions: for Effect on 2 h-PPG (in words) / Post-treatment 2-h PPG - pre-treatment 2-h PPG, mean value / Post-treatment 2-h PPG <10.0 mmol/L, Yes-N (%): 16 weeks of treatment; for Effect on 2 h-PPG (in words): Kruskal-Wilcox test; for Post-treatment 2-h PPG, mean value: after 16 weeks of treatment; for Pre-treatment 2-h PPG, mean value: baseline before treatment
# Protocol: From June 2015 to October 2018, a double-blind, randomized, and parallel-controlled trial, studying the effects of the combined use of Bifidobacterium and berberine on pre-diabetic and type 2 diabetes mellitus patients, was conducted in 10 research centers in Xi'an, Yan'an and Shangluo of Shaanxi province, etc., including the First Affiliated Hospital of the Fourth Military Medical University. The trial included an enrollment stage of 2 weeks and a treatment stage of 16 weeks. After passing the first visit 1 (see V1 in Table 1), the subjects entered the enrollment stage, i.e., 2 weeks of lifestyle intervention, followed by a re-screening (see V2 in Table 1). The subjects were subjected to a 16-week course of treatment after passing the screening. See Table 1 for the detailed screening parameters. After the enrollment stage, the baseline data of the 300 successfully enrolled subjects were collected. Meanwhile, the subjects started to receive lifestyle guidance, and were randomly divided into four groups for 16 weeks of treatments. 1) Bifidobacterium group: the subjects were administered with Bifidobacterium capsules (Livzon Pharmaceutical Group Inc., batch no.: 20141013), 0.35 g/capsule, each capsule containing 50,000,000 viable bacteria (Bifidobacterium adolescentis DM8504), 2 capsules/time, 2 times/day, plus berberine placebo tablets (Northeast Pharma Group Shenyang First Pharma Co., Ltd., Lot no.: 20150101, containing 80.2% microcrystalline cellulose, 9.4% pregelatinized starch, 6.4% sodium carboxymethyl starch, 1% magnesium stearate, and 3% copovidone), 0.1 g/tablet, 5 tablets/time, 2 times/day. 2) Berberine group: the subjects were administered with berberine tablets (Northeast Pharma Group Shenyang First Pharma Co., Ltd., Lot no.: 130917, each tablet weighted 0.165 g and contained 0.1 g active berberine ingredient (berberine hydrochloride), with the same excipients as the placebo tablets), 5 tablets/time, 2 times/day, plus Bifidobacterium placebo capsules (Livzon Pharmaceutical Group Inc., Lot no.: 141001, specifically containing 0.348 g spray-dried lactose, and 0.002 g magnesium stearate), 0.35 g/capsule, 2 capsules/time, 2 times/day. 3) Combination Group: the subjects were administered with Bifidobacterium capsules, 0.35 g/capsule, each capsule containing 50,000,000 viable bacteria (B. adolescentis DM8504), 2 capsules/time, 2 times/day, plus berberine tablets, 0.1 g/tablet, each tablet containing 0.1 g active berberine ingredient (berberine hydrochloride), 5 tablets/time, 2 times/day. 4) Control group: the subjects were administered with Bifidobacteria placebo capsules, 0.35 g/capsule, 2 capsules/time, 2 times/day, plus berberine placebo tablets, 0.1 g/tablet, 5 tablets/time, 2 times/day. Bifidobacterium capsules were taken after meals and berberine tablets were taken before meals. Before the oral glucose tolerance test (OGTT), the subjects took regular diets for at least 3 days, with carbohydrates no less than 150 g. After 10-12 h fasting, initial blood samples were collected after the subjects emptied their bladders. Then the subjects drank a sugar solution made by dissolving 75 g anhydrous glucoses in 300 ml water over about 5 min, and were collected for blood samples after 30 min and 2 h. […]
# [2] = test system: pre-diabetic and type 2 diabetes mellitus patients; test: Clinical trial: adverse events (safety evaluation); type: in vivo, human
# Protocol: From June 2015 to October 2018, a double-blind, randomized, and parallel-controlled trial, studying the effects of the combined use of Bifidobacterium and berberine on pre-diabetic and type 2 diabetes mellitus patients, was conducted in 10 research centers in Xi'an, Yan'an and Shangluo of Shaanxi province, etc., including the First Affiliated Hospital of the Fourth Military Medical University.
# The trial included an enrollment stage of 2 weeks and a treatment stage of 16 weeks. After passing the first visit 1 (see V1 in Table 1), the subjects entered the enrollment stage, i.e., 2 weeks of lifestyle intervention, followed by a re-screening (see V2 in Table 1). The subjects were subjected to a 16-week course of treatment after passing the screening. See Table 1 for the detailed screening parameters.
# After the enrollment stage, the baseline data of the 300 successfully enrolled subjects were collected. Meanwhile, the subjects started to receive lifestyle guidance, and were randomly divided into four groups for 16 weeks of treatments.
# 1) Bifidobacterium group: the subjects were administered with Bifidobacterium capsules (Livzon Pharmaceutical Group Inc., batch no.: 20141013), 0.35 g/capsule, each capsule containing 50,000,000 viable bacteria (Bifidobacterium adolescentis DM8504), 2 capsules/time, 2 times/day, plus berberine placebo tablets (Northeast Pharma Group Shenyang First Pharma Co., Ltd., Lot no.: 20150101, containing 80.2% microcrystalline cellulose, 9.4% pregelatinized starch, 6.4% sodium carboxymethyl starch, 1% magnesium stearate, and 3% copovidone), 0.1 g/tablet, 5 tablets/time, 2 times/day.
# 2) Berberine group: the subjects were administered with berberine tablets (Northeast Pharma Group Shenyang First Pharma Co., Ltd., Lot no.: 130917, each tablet weighted 0.165 g and contained 0.1 g active berberine ingredient (berberine hydrochloride), with the same excipients as the placebo tablets), 5 tablets/time, 2 times/day, plus Bifidobacterium placebo capsules (Livzon Pharmaceutical Group Inc., Lot no.: 141001, specifically containing 0.348 g spray-dried lactose, and 0.002 g magnesium stearate), 0.35 g/capsule, 2 capsules/time, 2 times/day.
# 3) Combination Group: the subjects were administered with Bifidobacterium capsules, 0.35 g/capsule, each capsule containing 50,000,000 viable bacteria (B. adolescentis DM8504), 2 capsules/time, 2 times/day, plus berberine tablets, 0.1 g/tablet, each tablet containing 0.1 g active berberine ingredient (berberine hydrochloride), 5 tablets/time, 2 times/day.
# 4) Control group: the subjects were administered with Bifidobacteria placebo capsules, 0.35 g/capsule, 2 capsules/time, 2 times/day, plus berberine placebo tablets, 0.1 g/tablet, 5 tablets/time, 2 times/day.
# Bifidobacterium capsules were taken after meals and berberine tablets were taken before meals.
# After the sample testing was finished, 1) Chi-Squared test and t-test were used to evaluate the intergroup balance of the baseline data including the demographic characteristics and pre-treatment indicators, wherein the baseline data referred to those collected at the second visit, before the formal administration, the data collected at the first visit on the enrollment stage were used instead if the data at the second visit was lacking; 2) two-way disordered CM-CH11, Kruska-Wilcox test, etc. were used for analysis and intergroup comparison of pre- and post-treatment indicators such as fasting plasma glucose (FPG), HbA1c, plasma glucose at 2 hours post OGTT (2-h PPG), blood pressure, blood lipids, body weight and BMI; 3) adverse events and hypoglycemia events were described in terms of the type, frequency and relevance with the drugs, for safety evaluation. Software SAS 9.1.3 was used for statistical analysis with all analysis processes being programmed.
# All subjects who followed the intent-to-treat principle, grouped randomly, and received the treatment trial and at least one efficacy evaluation were included in the full Analysis Set (FAS). […]
Compound,Effect on 2 h-PPG (in words) [1],"Post-treatment 2-h PPG - pre-treatment 2-h PPG, mean value ([1]; FAS) [mmol/L]","Post-treatment 2-h PPG <10.0 mmol/L, Yes-N (%) ([1]; FAS)","Post-treatment 2-h PPG, mean value ([1]; FAS) [mmol/L]","Pre-treatment 2-h PPG, mean value ([1]; FAS) [mmol/L]","Post-treatment 2-h PPG <10.0 mmol/L, Yes-N (%) ([1]; PPS)","Adverse event rate ([2]; human, in vivo) [%]","Event rate of adverse events correlated with medications ([2]; human, in vivo) [%]","Number of adverse events correlated with medications (abdominal discomfort, abnormal bowel movement) ([2]; human, in vivo)","Number of adverse events reported ([2]; human, in vivo)","Number of subjects with adverse events ([2]; human, in vivo)","Number of subjects with adverse events correlated with medications ([2]; human, in vivo)",Adverse event rate ([2]; throughout the trial) [%],Event rate of adverse events correlated with medications ([2]; throughout the trial) [%],"Number of adverse events correlated with medications (abdominal discomfort, abnormal bowel movement) ([2]; throughout the trial)",Number of subjects with adverse events ([2]; throughout the trial),Number of subjects with adverse events correlated with medications ([2]; throughout the trial)
Bifidobacterium,no such effect,-0.246,45(45.00) N (%),11.3,11.4,31(37.35) N (%),84,21.0,30,203,84,21,–,–,–,–,–
"COc1ccc2cc3[n+](cc2c1OC)CCc1cc2c(cc1-3)OCO2 [Berberine, berberine hydrochloride]",good effect too,-1.1,35(71.43) N (%),9.84,11.2,24(64.86) N (%),–,–,–,–,–,–,81.63,18.37,19,40,9
